Measurements published in patent US7405201B2, “Antibacterial macrocycles” (Bayer Healthcare AG, priority 2001, dated 2008).
Converted amounts (≈) assume the structure as drawn. Where two headings read alike, the source gives them in different places. Positions of bridges follow the written chain, without caps; N, C: chain ends. Non-standard residues stand in square brackets, D forms with d. Residues, ends and D or L forms follow the SMILES beside them. ξ: configuration not given here. *: point of attachment. Phe(3,5-F2) = N[C@@H](Cc1cc(F)cc(F)c1)C(=O)O; Phe(3-Cl) = N[C@@H](Cc1cccc(Cl)c1)C(=O)O; ξPhe(3,5-F2) = NC(Cc1cc(F)cc(F)c1)C(=O)O; Pro(4R-Me) = C[C@H]1CN[C@H](C(=O)O)C1; Phe(2-F) = N[C@@H](Cc1ccccc1F)C(=O)O; Heptenoyl(2E) = CCCC/C=C/C(=O)*; NMeS = CN[C@@H](CO)C(=O)O; X4 = O=C(/C=C/C1CC=CCC1)*; NMeA = CN[C@@H](C)C(=O)O; X1 = CC(C)/C=C(\F)C(=O)*; X5 = CCCC(C)/C=C/C(=O)*; X2 = CCCCC/C=C/C(=O)*; ξPip = O=C(O)C1CCCCN1; X3 = O=C(C=C1CCC1)*

Columns and labels:
[1] = amide bond, EDC/pentafluorophenol (Pfp ester), then HCl/dioxane, then aq. NaHCO3, dichloromethane, 25.0 °C, 3 steps
[2] = tested on: Enterococcus faecium L 4001; assay: Minimum inhibitory concentration (MIC), liquid dilution test; assay type: cell-based; conditions: L4001, Müller Hinton broth, 37° C., 18-24 hours, 8-10% of CO2
Method: (§1) Determination of the Minimum Inhibitory Concentration (MIC): The MIC is determined in the liquid dilution test. Overnight cultures of the test microorganisms are diluted 1:5 000 or S. aureus 133 is diluted 1:10 000 in Müller Hinton broth (manufacturer: BBL) and incubated with dilutions of the test substances (dilution stages 1:2). Exceptions are the tests with S. pyogenes Wacker and S. pneumoniae 1707/4, which are carried out in Müller Hinton broth plus 20% bovine serum. The cultures are incubated at 37° C. for 18-24 hours; enterococci and streptococci in the presence of 8-10% of CO2. The lowest substance concentration in each case at which visible bacterial growth no longer takes place is defined as the MIC. […] The compounds show very good antibacterial action against most of the test microorganisms and thus a broad Gram-positive action.

[3] = tested on: Streptococcus pyogenes Wacker; assay: as above; assay type: cell-based; conditions: Müller Hinton broth plus 20% bovine serum, 37° C., 18-24 hours, 8-10% of CO2
Method: as §1

[4] = tested on: Enterococcus faecalis ICB 27159; assay: as above; assay type: cell-based; conditions: ICB27159, Müller Hinton broth, 37° C., 18-24 hours, 8-10% of CO2
Method: as §1

[5] = tested on: Streptococcus pneumoniae 1707/4; assay: as above; assay type: cell-based; conditions: Müller Hinton broth plus 20% bovine serum, 37° C., 18-24 hours, 8-10% of CO2
Method: as §1

[6] = tested on: Staphylococcus aureus 133; assay: as above; assay type: cell-based; conditions: Müller Hinton broth, overnight culture diluted 1:10 000, 37° C., 18-24 hours
Method: as §1

| Compound | ring closure, yield of all isomers ([1]; from C[C@@H]1C[C@@H](C(=O)OC[C@H](NC(=O)OCc2ccccc2)C(=O)O)N(C(=O)[C@H](C)NC(=O)[C@@H]2CCCCN2C(=O)[C@@H]2CCCN2C(=O)OC(C)(C)C)C1, 2.58 mM, 16.0 h) [%] | ring closure, yield of all isomers ([1]; from C[C@H](NC(=O)[C@H](C)N(C)C(=O)[C@@H]1CCCN1C(=O)OC(C)(C)C)C(=O)N1CCC[C@H]1C(=O)OC[C@H](NC(=O)OCc1ccccc1)C(=O)O, 8.9 mM, 2.0 h) [%] | MIC [2] [µg/mL] | MIC [3] [µg/mL] | MIC [4] [µg/mL] | MIC [5] [µg/mL] | MIC [6] [µg/mL] |
| --- | --- | --- | --- | --- | --- | --- | --- |
| C[C@@H]1C[C@H]2C(=O)OC[C@H](NC(=O)OCc3ccccc3)C(=O)N3CCC[C@H]3C(=O)N3CCCC[C@H]3C(=O)N[C@@H](C)C(=O)N2C1 | 60 | – | – | – | – | – | – |
| C[C@@H]1NC(=O)[C@H](C)N(C)C(=O)[C@@H]2CCCN2C(=O)[C@@H](NC(=O)OCc2ccccc2)COC(=O)[C@@H]2CCCN2C1=O | – | 58 | – | – | – | – | – |
| CCCC/C=C/C(=O)N[C@@H](Cc1cc(F)cc(F)c1)C(=O)N[C@H]1COC(=O)[C@@H]2CCCN2C(=O)[C@H](C)NC(=O)[C@H](C)N(C)C(=O)[C@@H]2CCCN2C1=O [Example 1, (E)-Hept-2-enoic acid [(S)-2-(3,5-difluorophenyl)-1-((3S,7S,13S,16S,19S)-13,16,17-trimethyl-2,6,12,15,18-pentaoxo-5-oxa-1,11,14,17-tetraazatricyclo[17.3.0.0^7,11]docos-3-ylcarbamoyl)-ethyl]-amide] ({Heptenoyl(2E)}-[Phe(3,5-F2)]SP[NMeA]AP; ester 2-C) | – | – | < 0.125 | 25 | < 0.125 | < 0.125 | 0.25 (≈ 0.342 µM) |
| C[C@@H]1C[C@H]2C(=O)OC[C@H](NC(=O)[C@H](Cc3cc(F)cc(F)c3)NC(=O)CCC3CCCCC3)C(=O)N3CCC[C@H]3C(=O)N3CCCC[C@H]3C(=O)N[C@@H](C)C(=O)N2C1 [Example 3, 3-Cylcohexylpropanoic acid [(S)-2-(3,5-difluorophenyl)-1-((3S,9S,13S,15R,19S,22S)-15,19-Dimethyl-2,8,12,18,21-pentaoxo-11-oxa-1,7,17,20-tetraaza-tetracyclo[20.4.0.0^3,7.0^13,17]hexacos-9-ylcarbamoyl)-ethyl]-amide] | – | – | < 0.125 | 0.5 | < 0.125 | < 0.125 | 0.5 (≈ 0.626 µM) |
| CCCC/C=C/C(=O)N[C@@H](Cc1cc(F)cc(F)c1)C(=O)N[C@H]1COC(=O)[C@@H]2C[C@@H](C)CN2C(=O)[C@H](C)NC(=O)[C@H](C)N(C)C(=O)[C@@H]2CCCN2C1=O [Example 6] ({Heptenoyl(2E)}-[Phe(3,5-F2)]SP[NMeA]A[Pro(4R-Me)]; ester 2-C) | – | – | < 0.125 | 0.25 | < 0.125 | 0.125 | < 0.125 |
| CCCC/C=C/C(=O)N[C@@H](Cc1cc(F)cc(F)c1)C(=O)N[C@H]1COC(=O)[C@@H]2CCCN2C(=O)[C@H](C)NC(=O)[C@H](CO)N(C)C(=O)[C@@H]2CCCN2C1=O [Example 13] ({Heptenoyl(2E)}-[Phe(3,5-F2)]SP[NMeS]AP; ester 2-C) | – | – | < 0.125 | < 0.125 | < 0.125 | < 0.125 | 0.25 (≈ 0.335 µM) |
| C[C@@H]1NC(=O)[C@H](C)N(C)C(=O)[C@@H]2CCCN2C(=O)[C@@H](NC(=O)[C@H](Cc2ccccc2F)NC(=O)/C=C/C2CC=CCC2)COC(=O)[C@@H]2CCCN2C1=O (stereo partly drawn) [Example 28] (X4-[Phe(2-F)]SP[NMeA]AP; ester 2-C) | – | – | 4 (≈ 5.43 µM) | 2 | 8 (≈ 10.9 µM) | 1 | 8 (≈ 10.9 µM) |
| CCCCC/C=C/C(=O)N[C@@H](Cc1cccc(Cl)c1)C(=O)N[C@H]1COC(=O)[C@@H]2CCCN2C(=O)[C@H](C)NC(=O)[C@H](C)N(C)C(=O)[C@@H]2CCCN2C1=O [Example 32] (X2-[Phe(3-Cl)]SP[NMeA]AP; ester 2-C) | – | – | 0.5 (≈ 0.673 µM) | 2 | 1 (≈ 1.35 µM) | 2 | 4 (≈ 5.38 µM) |
| CCCC/C=C/C(=O)NC(Cc1cc(F)cc(F)c1)C(=O)N[C@H]1COC(=O)[C@@H]2CCCN2C(=O)CNC(=O)C2CCCCN2C(=O)[C@@H]2CCCN2C1=O (stereo partly drawn) [Example 61] ({Heptenoyl(2E)}-[ξPhe(3,5-F2)]SP[ξPip]GP; ester 2-C) | – | – | 32 (≈ 43.1 µM) | 16 | 32 (≈ 43.1 µM) | 16 | 64 (≈ 86.2 µM) |
| CCCC(C)/C=C/C(=O)N[C@@H](Cc1cc(F)cc(F)c1)C(=O)N[C@H]1COC(=O)[C@@H]2CCCN2C(=O)[C@H](C)NC(=O)[C@H](C)N(C)C(=O)[C@@H]2CCCN2C1=O (stereo partly drawn) [Example 75] (X5-[Phe(3,5-F2)]SP[NMeA]AP; ester 2-C) | – | – | < 0.125 | 0.25 | < 0.125 | < 0.125 | 0.5 (≈ 0.671 µM) |
| C=CCC/C=C/C(=O)N[C@@H](Cc1cc(F)cc(F)c1)C(=O)N[C@H]1COC(=O)[C@@H]2C[C@@H](C)CN2C(=O)[C@H](C)NC(=O)[C@@H]2CCCCN2C(=O)[C@@H]2CCCN2C1=O [Example 79] | – | – | < 0.125 | 1 | < 0.125 | 0.5 | 0.25 (≈ 0.325 µM) |
| CC(C)/C=C(\F)C(=O)N[C@@H](Cc1cc(F)cc(F)c1)C(=O)N[C@H]1COC(=O)[C@@H]2CCCN2C(=O)[C@H](C)NC(=O)[C@H](C)N(C)C(=O)[C@@H]2CCCN2C1=O [Example 84] (X1-[Phe(3,5-F2)]SP[NMeA]AP; ester 2-C) | – | – | 0.5 (≈ 0.68 µM) | 0.5 | 0.5 (≈ 0.68 µM) | 0.25 | 4 (≈ 5.44 µM) |
| C[C@@H]1NC(=O)[C@H](C)N(C)C(=O)[C@@H]2CCCN2C(=O)[C@@H](NC(=O)[C@H](Cc2cc(F)cc(F)c2)NC(=O)C=C2CCC2)COC(=O)[C@@H]2CCCN2C1=O [Example 85] (X3-[Phe(3,5-F2)]SP[NMeA]AP; ester 2-C) | – | – | 4 (≈ 5.6 µM) | 2 | 2 (≈ 2.8 µM) | 1 | 32 (≈ 44.8 µM) |
